From article PMC9719791 (Science translational medicine, 2021)

Target: SUMO activating enzyme (SAE) (Homo sapiens, UniProt Q9UBE0+Q9UBT2)
Assay: E1-E2 HTRF transthiolation assay with recombinantly purified SAE
Assay type: biochemical

Sequence of SUMO activating enzyme (SAE) (Q9UBT2 whole entry): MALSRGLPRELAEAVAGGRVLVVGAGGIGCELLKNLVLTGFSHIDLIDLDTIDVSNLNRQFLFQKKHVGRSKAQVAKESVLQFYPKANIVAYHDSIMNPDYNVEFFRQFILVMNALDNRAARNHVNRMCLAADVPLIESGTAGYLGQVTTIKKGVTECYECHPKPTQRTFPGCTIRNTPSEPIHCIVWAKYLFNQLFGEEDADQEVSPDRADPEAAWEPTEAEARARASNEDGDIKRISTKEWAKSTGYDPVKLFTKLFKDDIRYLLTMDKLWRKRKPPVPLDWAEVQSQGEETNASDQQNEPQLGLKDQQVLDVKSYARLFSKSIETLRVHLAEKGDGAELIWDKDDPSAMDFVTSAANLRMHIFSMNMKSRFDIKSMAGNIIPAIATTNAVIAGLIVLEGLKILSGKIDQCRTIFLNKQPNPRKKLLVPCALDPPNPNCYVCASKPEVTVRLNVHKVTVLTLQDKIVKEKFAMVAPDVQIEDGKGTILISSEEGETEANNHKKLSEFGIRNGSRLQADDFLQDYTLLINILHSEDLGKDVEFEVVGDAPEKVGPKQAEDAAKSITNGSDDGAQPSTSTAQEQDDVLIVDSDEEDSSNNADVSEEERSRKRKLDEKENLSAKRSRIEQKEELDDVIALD
Sequence of SUMO activating enzyme (SAE) (Q9UBE0 whole entry): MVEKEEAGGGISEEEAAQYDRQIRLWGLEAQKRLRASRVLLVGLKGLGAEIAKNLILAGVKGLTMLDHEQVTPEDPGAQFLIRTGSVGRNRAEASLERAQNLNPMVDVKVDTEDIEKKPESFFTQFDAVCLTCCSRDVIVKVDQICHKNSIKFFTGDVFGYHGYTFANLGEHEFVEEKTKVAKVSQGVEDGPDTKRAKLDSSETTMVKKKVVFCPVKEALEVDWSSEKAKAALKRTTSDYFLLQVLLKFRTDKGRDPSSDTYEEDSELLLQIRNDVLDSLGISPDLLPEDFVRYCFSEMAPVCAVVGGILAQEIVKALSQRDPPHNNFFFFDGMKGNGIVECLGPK
Sequence of SUMO activating enzyme (SAE) (P63279 2-158 partner): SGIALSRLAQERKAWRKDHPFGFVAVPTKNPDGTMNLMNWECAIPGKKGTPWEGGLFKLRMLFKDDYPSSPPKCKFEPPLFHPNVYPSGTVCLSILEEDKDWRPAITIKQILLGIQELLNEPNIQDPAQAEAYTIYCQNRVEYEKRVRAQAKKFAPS

Cc1sc(C(=O)c2cncnc2N[C@@H]2C[C@H](COS(N)(=O)=O)[C@@H](O)C2)cc1[C@@H]1NCCc2ccc(Cl)cc21 [TAK-981, ((1R,2S,4R)-4-((5-(4-((1R)-7-chloro-1,2,3,4-tetrahydroisoquinolin-1-yl)-5-methylthiophene-2-carbonyl)pyrimidin-4-yl)amino)-2-hydroxycyclopentyl)methyl sulfamate]
IC50: 0.6 nM
